Test results taken from US20230085307A1, “PYRIDAZINONE COMPOUND AND HERBICIDE” (NISSAN CHEMICAL CORPORATION, priority 2019, published 2023).

How the values were obtained:
[1] = system: barnyard grass; assay: Test Example 3: herbicidal effect by foliage application, Wagner pot (Table 18, symbol H); assay type: in vivo, barnyard grass (Echinochloa crus-galli); details: 320 g/ha
Outline: (§1)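 Plants were sown in alluvial soil held under 0.1–0.5 cm standing water and grown 14 days in a greenhouse at 25–30 °C. An emulsifiable formulation, water-diluted to the set dose, was then sprayed onto the foliage, and effects were scored three weeks later using previously defined criteria.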

[2] = system: Chinese sprangletop; assay: Test Example 3: herbicidal effect by foliage application, Wagner pot (Table 18, symbol D); assay type: in vivo, chinese sprangletop (Leptochloa chinensis); details: 320 g/ha
Outline: as §1

[3] = system: rice flat sedge; assay: Test Example 3: herbicidal effect by foliage application, Wagner pot (Table 18, symbol E); assay type: in vivo, rice flat sedge (Cyperus iria); details: 320 g/ha
Outline: as §1

[4] = system: southern crabgrass; assay: Test Example 5: herbicidal effect by foliage application, plastic box (Table 20, symbol F); assay type: in vivo, southern crabgrass (Digitaria ciliaris); details: for Herbicidal effect by foliage application, F: southern crabgrass: amount of applied herbicide 320 g/ha, foliage application after 14-day growth, evaluated three weeks after application
Outline: (§2)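 Plants were sown into sterilized diluvial soil under about 1.5 cm cover and kept in a greenhouse at 25° C. to 30° C. Fourteen days on, foliage received an even spray of the diluted emulsion. Herbicidal or crop effect was judged three weeks afterwards.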

[5] = system: green foxtail; assay: Test Example 5: herbicidal effect by foliage application, plastic box (Table 20, symbol G); assay type: in vivo, green foxtail (Setaria viridis); details: for Herbicidal effect by foliage application, G: green foxtail: amount of applied herbicide 320 g/ha, foliage application after 14-day growth, evaluated three weeks after application
Outline: as §2

[6] = system: barnyard grass; assay: Test Example 5: herbicidal effect by foliage application, plastic box (Table 20, symbol H); assay type: in vivo, barnyard grass (Echinochloa crus-galli); details: for Herbicidal effect by foliage application, H: barnyard grass: amount of applied herbicide 320 g/ha, foliage application after 14-day growth, evaluated three weeks after application
Outline: as §2

[7] = system: wild oat; assay: Test Example 5: herbicidal effect by foliage application, plastic box (Table 20, symbol I); assay type: in vivo, wild oat (Avena fatua); details: for Herbicidal effect by foliage application, I: wild oat: amount of applied herbicide 320 g/ha, foliage application after 14-day growth, evaluated three weeks after application
Outline: as §2

[8] = system: blackgrass; assay: Test Example 5: herbicidal effect by foliage application, plastic box (Table 20, symbol J); assay type: in vivo, blackgrass (Alopecurus myosuroides); details: for Herbicidal effect by foliage application, J: blackgrass: amount of applied herbicide 320 g/ha, foliage application after 14-day growth, evaluated three weeks after application
Outline: as §2

[9] = system: Italian ryegrass; assay: Test Example 5: herbicidal effect by foliage application, plastic box (Table 20, symbol K); assay type: in vivo, Italian ryegrass (Lolium multiflorum); details: for Herbicidal effect by foliage application, K: Italian ryegrass: amount of applied herbicide 320 g/ha, foliage application after 14-day growth, evaluated three weeks after application
Outline: as §2

[10] = system: windgrass; assay: Test Example 5: herbicidal effect by foliage application, plastic box (Table 20, symbol L); assay type: in vivo, windgrass (Apera spica-venti); details: for Herbicidal effect by foliage application, L: windgrass: amount of applied herbicide 320 g/ha, foliage application after 14-day growth, evaluated three weeks after application
Outline: as §2

[11] = system: velvetleaf; assay: Test Example 5: herbicidal effect by foliage application, plastic box (Table 20, symbol M); assay type: in vivo, velvetleaf (Abutilon theophrasti); details: for Herbicidal effect by foliage application, M: velvetleaf: amount of applied herbicide 320 g/ha, foliage application after 14-day growth, evaluated three weeks after application
Outline: as §2

[12] = system: redroot pigweed; assay: Test Example 5: herbicidal effect by foliage application, plastic box (Table 20, symbol N); assay type: in vivo, redroot pigweed (Amaranthus retroflexus); details: for Herbicidal effect by foliage application, N: redroot pigweed: amount of applied herbicide 320 g/ha, foliage application after 14-day growth, evaluated three weeks after application
Outline: as §2

[13] = system: lambsquarters; assay: Test Example 5: herbicidal effect by foliage application, plastic box (Table 20, symbol O); assay type: in vivo, lambsquarters (Chenopodium album); details: for Herbicidal effect by foliage application, O: lambsquarters: amount of applied herbicide 320 g/ha, foliage application after 14-day growth, evaluated three weeks after application
Outline: as §2

[14] = system: chickweed; assay: Test Example 5: herbicidal effect by foliage application, plastic box (Table 20, symbol P); assay type: in vivo, common chickweed (Stellaria media); details: for Herbicidal effect by foliage application, P: chickweed: amount of applied herbicide 320 g/ha, foliage application after 14-day growth, evaluated three weeks after application
Outline: as §2

[15] = system: false cleavers; assay: Test Example 5: herbicidal effect by foliage application, plastic box (Table 20, symbol Q); assay type: in vivo, false cleavers (Galium spurium); details: for Herbicidal effect by foliage application, Q: false cleavers: amount of applied herbicide 320 g/ha, foliage application after 14-day growth, evaluated three weeks after application
From the text: [Test Example 5] Herbicidal Effect Test by Foliage Application
Sterilized diluvial soil was placed in a plastic box having a length of 21 cm, a width of 13 cm, and a depth of 7 cm. The seeds of each of southern crabgrass, green foxtail, barnyard grass, wild oat, blackgrass, Italian ryegrass, windgrass, velvetleaf, redroot pigweed, lambsquarters, chickweed, false cleavers, persian speedwell, corn, soybean, rice, wheat, beet, and rapeseed were sowed in a spot-like manner and covered with the soil having a thickness of about 1.5 cm. Thereafter, the plants were grown in a greenhouse at 25° C. to 30° C. After 14-day growth of the plants, the emulsion agent of the compound of the present invention prepared according to Formulation Example 2 was diluted with water so as to achieve a predetermined herbicide amount, and the diluted emulsion agent was uniformly applied to a foliage part with a small-sized spray. Three weeks after the herbicide application, the effect of the herbicide on each plant was evaluated according to the criteria of Test Example 1.

[16] = system: persian speedwell; assay: Test Example 5: herbicidal effect by foliage application, plastic box (Table 20, symbol R); assay type: in vivo, Persian speedwell (Veronica persica); details: for Herbicidal effect by foliage application, R: persian speedwell: amount of applied herbicide 320 g/ha, foliage application after 14-day growth, evaluated three weeks after application
Outline: as §2

[17] = foliage application, AAH 320 g/ha, three weeks after application

Row | Compound | herbicidal effect on barnyard grass (H) [1] | herbicidal effect on Chinese sprangletop (D) [2] | herbicidal effect on rice flat sedge (E) [3] | Herbicidal effect by foliage application, F: southern crabgrass [4] | Herbicidal effect by foliage application, G: green foxtail [5] | Herbicidal effect by foliage application, H: barnyard grass [6] | Herbicidal effect by foliage application, I: wild oat [7] | Herbicidal effect by foliage application, J: blackgrass [8] | Herbicidal effect by foliage application, K: Italian ryegrass [9] | Herbicidal effect by foliage application, L: windgrass [10] | Herbicidal effect by foliage application, M: velvetleaf [11] | Herbicidal effect by foliage application, N: redroot pigweed [12] | Herbicidal effect by foliage application, O: lambsquarters [13] | Herbicidal effect by foliage application, P: chickweed [14] | Herbicidal effect by foliage application, Q: false cleavers [15] | Herbicidal effect by foliage application, R: persian speedwell [16] | further results
1 | Cc1nn(C)c(=O)c(-c2c(-c3ccc(Oc4ccccc4)cc3)sc3ccccc23)c1O [1-149] | – | – | – | – | – | – | – | – | – | – | – | – | – | – | – | – | herbicidal effect on H (barnyard grass), rating 0-5 [1]: 3 (Herbicidal rate of 40% or more and less than 70%); herbicidal effect on D (Chinese sprangletop), rating 0-5 [2]: 3 (Herbicidal rate of 40% or more and less than 70%); herbicidal effect on E (rice flat sedge), rating 0-5 [3]: 5 (Herbicidal rate of 90% or more (almost completely withered)); F: southern crabgrass, herbicidal effect [4, 17]: 3 (Herbicidal rate of 40% or more and less than 70%); G: green foxtail, herbicidal effect [5, 17]: 4 (Herbicidal rate of 70% or more and less than 90%); H: barnyard grass, herbicidal effect [6, 17]: 3 (Herbicidal rate of 40% or more and less than 70%); I: wild oat, herbicidal effect [7, 17]: 0 (Herbicidal rate of 5% or less (almost no effect)); J: blackgrass, herbicidal effect [8, 17]: 0 (Herbicidal rate of 5% or less (almost no effect)); K: Italian ryegrass, herbicidal effect [9, 17]: 0 (Herbicidal rate of 5% or less (almost no effect)); L: windgrass, herbicidal effect [10, 17]: 0 (Herbicidal rate of 5% or less (almost no effect)); M: velvetleaf, herbicidal effect [11, 17]: 2 (Herbicidal rate of 20% or more and less than 40%); N: redroot pigweed, herbicidal effect [12, 17]: 5 (Herbicidal rate of 90% or more (almost completely withered)); O: lambsquarters, herbicidal effect [13, 17]: 4 (Herbicidal rate of 70% or more and less than 90%); P: chickweed, herbicidal effect [14, 17]: 3 (Herbicidal rate of 40% or more and less than 70%); Q: false cleavers, herbicidal effect [15, 17]: 5 (Herbicidal rate of 90% or more (almost completely withered)); R: persian speedwell, herbicidal effect [16, 17]: 5 (Herbicidal rate of 90% or more (almost completely withered))
2 | CSc1ccccc1-c1sc2c(Cl)cccc2c1-c1c(O)c(C)nn(C)c1=O [4-086] | 4 (Herbicidal rate of 70% or more and less than 90%) | 3 (Herbicidal rate of 40% or more and less than 70%) | 3 (Herbicidal rate of 40% or more and less than 70%) | 0 (Herbicidal rate of 5% or less (almost no effect)) | 3 (Herbicidal rate of 40% or more and less than 70%) | 1 (Herbicidal rate of 5% or more and less than 20%) | 0 (Herbicidal rate of 5% or less (almost no effect)) | 0 (Herbicidal rate of 5% or less (almost no effect)) | 0 (Herbicidal rate of 5% or less (almost no effect)) | 4 (Herbicidal rate of 70% or more and less than 90%) | 3 (Herbicidal rate of 40% or more and less than 70%) | 4 (Herbicidal rate of 70% or more and less than 90%) | 3 (Herbicidal rate of 40% or more and less than 70%) | 5 (Herbicidal rate of 90% or more (almost completely withered)) | 1 (Herbicidal rate of 5% or more and less than 20%) | 5 (Herbicidal rate of 90% or more (almost completely withered)) | –
3 | CCSc1ccccc1-c1sc2c(C)cccc2c1-c1c(O)c(C)nn(C)c1=O [4-120] | 2 (Herbicidal rate of 20% or more and less than 40%) | 3 (Herbicidal rate of 40% or more and less than 70%) | 2 (Herbicidal rate of 20% or more and less than 40%) | 0 (Herbicidal rate of 5% or less (almost no effect)) | 0 (Herbicidal rate of 5% or less (almost no effect)) | 0 (Herbicidal rate of 5% or less (almost no effect)) | 0 (Herbicidal rate of 5% or less (almost no effect)) | 0 (Herbicidal rate of 5% or less (almost no effect)) | 0 (Herbicidal rate of 5% or less (almost no effect)) | 0 (Herbicidal rate of 5% or less (almost no effect)) | 0 (Herbicidal rate of 5% or less (almost no effect)) | 0 (Herbicidal rate of 5% or less (almost no effect)) | 0 (Herbicidal rate of 5% or less (almost no effect)) | 5 (Herbicidal rate of 90% or more (almost completely withered)) | 0 (Herbicidal rate of 5% or less (almost no effect)) | 5 (Herbicidal rate of 90% or more (almost completely withered)) | –
